From patent US8815882B2, “Pyrazole aminopyrimidine derivatives as LRRK2 modulators” (Genentech, Inc., priority 2010, dated 2014)

target: T1, LRRK2 (Homo sapiens, UniProt Q5S007, G2019S); assay: In Vitro LRRK2 Assay (LabChip 3000, fluorescently-labeled peptide substrate, ATP); type: biochemical; details: Table 9; LRRK2 Ki (micromolar); read-out: LRRK2 Ki (KI)
T1 construct: purchased Invitrogen PV4882 (lot 567054A)
Protocol: This assay was used to determine a compound's potency in inhibiting activity of LRRK2 by determining, Kiapp, IC50, or percent inhibition values. In a polypropylene plate, LRRK2, fluorescently-labeled peptide substrate, ATP and test compound were incubated together. Using a LabChip 3000 (Caliper Life Sciences), after the reaction the substrate was separated by capillary electrophoresis into two populations: phosphorylated and unphosphorylated. The relative amounts of each were quantitated by fluorescence intensity. LRRK2 Ki was determined according to the equation: Y=V0*(1−(x+Ki*(1+S/Km)+Et)/(2*Et)−(((x+Ki*(1+S/Km)+Et)^2−(4*Et*x))^0.5)/(2*Et))). Ki values in Table 4 and elsewhere herein are shown in μM.
Assay conditions and materials used were as follows:
Compound Plate Preparation:
For serial dilutions, 34.6 μl DMSO was added to columns 3-24.
Total and Blank Preparation:
In Complete Reaction Buffer, substrate was diluted to 4 μM. Equal volumes of Complete Reaction Buffer and 4 μM substrate were combined to obtain the blank. Equal volumes of Complete Reaction Buffer and 4 μM substrate were combined and to the combined solution was added 2× final LRRK2 concentration.
To a 50 μl polypropylene plate, 5 μl/well buffer/substrate was added by hand to Blank wells. A Biomek FX was used to start the kinase reaction (“PLK SAR 23 ATP”). The following were added to the appropriate wells:
5 μl/well compound/ATP in Assay Plate;
5 μl/well kinase/substrate in Assay Plate;
The plate was incubated for 2 hours in the dark. Biomek FX was used to stop the kinase reaction (“PLK Stop”), and 10 μl/well Stop solution was added to the Assay Plate. Results were read on the LabChip 3000.
The LabChip 3000 was run using the job “LRRK2 IC50” with the following job settings: […]

T1 sequence (Q5S007 whole entry G2019S): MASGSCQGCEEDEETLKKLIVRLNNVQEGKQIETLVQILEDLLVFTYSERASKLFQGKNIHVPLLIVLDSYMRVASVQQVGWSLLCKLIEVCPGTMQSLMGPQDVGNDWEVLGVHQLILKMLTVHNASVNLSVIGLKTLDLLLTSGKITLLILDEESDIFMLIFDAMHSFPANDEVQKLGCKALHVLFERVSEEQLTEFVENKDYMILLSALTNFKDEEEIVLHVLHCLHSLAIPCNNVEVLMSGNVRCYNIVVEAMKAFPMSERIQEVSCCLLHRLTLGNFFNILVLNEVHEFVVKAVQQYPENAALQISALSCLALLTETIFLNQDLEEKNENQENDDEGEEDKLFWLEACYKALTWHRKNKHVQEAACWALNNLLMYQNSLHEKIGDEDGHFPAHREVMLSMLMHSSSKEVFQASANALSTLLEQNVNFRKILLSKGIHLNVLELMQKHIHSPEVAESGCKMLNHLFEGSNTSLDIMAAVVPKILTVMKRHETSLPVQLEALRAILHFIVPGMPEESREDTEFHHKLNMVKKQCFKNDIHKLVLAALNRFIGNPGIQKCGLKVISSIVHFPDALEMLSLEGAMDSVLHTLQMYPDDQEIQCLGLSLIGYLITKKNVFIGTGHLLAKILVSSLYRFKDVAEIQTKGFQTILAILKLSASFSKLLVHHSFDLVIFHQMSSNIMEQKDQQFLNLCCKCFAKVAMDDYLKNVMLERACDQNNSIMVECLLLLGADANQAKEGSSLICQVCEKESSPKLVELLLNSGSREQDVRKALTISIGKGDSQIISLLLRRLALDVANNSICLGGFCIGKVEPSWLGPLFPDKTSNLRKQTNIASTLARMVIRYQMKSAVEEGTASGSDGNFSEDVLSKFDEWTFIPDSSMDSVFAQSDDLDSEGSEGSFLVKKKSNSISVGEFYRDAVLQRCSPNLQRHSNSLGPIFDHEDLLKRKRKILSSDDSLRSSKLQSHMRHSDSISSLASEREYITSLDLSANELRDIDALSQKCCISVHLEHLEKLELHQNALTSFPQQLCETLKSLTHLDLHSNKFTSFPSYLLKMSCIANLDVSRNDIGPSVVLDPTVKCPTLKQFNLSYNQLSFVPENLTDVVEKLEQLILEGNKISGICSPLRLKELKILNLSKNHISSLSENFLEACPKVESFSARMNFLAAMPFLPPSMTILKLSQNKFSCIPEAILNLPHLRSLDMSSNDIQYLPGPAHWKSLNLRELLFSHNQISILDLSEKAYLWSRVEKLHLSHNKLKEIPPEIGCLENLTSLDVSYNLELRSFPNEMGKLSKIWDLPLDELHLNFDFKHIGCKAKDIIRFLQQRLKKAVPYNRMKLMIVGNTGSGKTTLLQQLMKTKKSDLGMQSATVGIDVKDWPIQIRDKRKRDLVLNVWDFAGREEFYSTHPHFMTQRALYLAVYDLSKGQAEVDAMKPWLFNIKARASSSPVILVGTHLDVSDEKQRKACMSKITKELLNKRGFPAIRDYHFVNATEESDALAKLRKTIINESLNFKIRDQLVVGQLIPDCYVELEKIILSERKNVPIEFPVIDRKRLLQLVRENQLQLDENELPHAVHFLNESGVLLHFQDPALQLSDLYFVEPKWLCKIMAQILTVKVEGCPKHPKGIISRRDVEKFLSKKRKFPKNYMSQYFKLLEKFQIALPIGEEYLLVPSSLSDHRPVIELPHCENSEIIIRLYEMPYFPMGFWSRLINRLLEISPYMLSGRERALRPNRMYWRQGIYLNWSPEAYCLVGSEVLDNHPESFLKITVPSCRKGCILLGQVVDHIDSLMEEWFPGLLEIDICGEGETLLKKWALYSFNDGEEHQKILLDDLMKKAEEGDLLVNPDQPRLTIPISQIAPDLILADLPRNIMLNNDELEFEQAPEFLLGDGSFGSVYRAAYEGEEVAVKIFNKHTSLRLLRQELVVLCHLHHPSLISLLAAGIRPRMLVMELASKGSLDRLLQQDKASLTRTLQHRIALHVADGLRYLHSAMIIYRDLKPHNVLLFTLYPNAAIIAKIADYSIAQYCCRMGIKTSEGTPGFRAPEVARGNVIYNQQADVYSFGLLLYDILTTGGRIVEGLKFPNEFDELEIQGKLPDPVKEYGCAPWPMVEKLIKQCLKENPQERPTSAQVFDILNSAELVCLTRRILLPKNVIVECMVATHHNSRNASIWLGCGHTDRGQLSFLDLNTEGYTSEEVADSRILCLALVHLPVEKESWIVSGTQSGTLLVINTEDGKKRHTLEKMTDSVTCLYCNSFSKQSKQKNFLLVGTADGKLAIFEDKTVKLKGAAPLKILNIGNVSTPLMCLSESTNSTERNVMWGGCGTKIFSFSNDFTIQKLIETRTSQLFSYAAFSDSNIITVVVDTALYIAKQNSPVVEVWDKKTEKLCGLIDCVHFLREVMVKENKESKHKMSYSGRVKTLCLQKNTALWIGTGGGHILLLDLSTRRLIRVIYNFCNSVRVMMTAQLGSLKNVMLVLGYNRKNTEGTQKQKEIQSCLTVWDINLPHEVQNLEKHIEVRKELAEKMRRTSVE

Point of comparison: CNc1nc(Nc2cn(CC3CC3)nc2C)ncc1C#N [Example 380, 2-(1-(cyclopropylmethyl)-3-methyl-1H-ylamino)-4-(methylamino) pyrimidine-5-carbonitrile], Ki 45 nM. Against it:
- CNc1nc(Nc2cn(C)nc2C)ncc1C#N [Example 350, 2-(1,3-Dimethyl-1H-pyrazol-4-ylamino)-4-methylamino-pyrimidine-5-carbonitrile] — 1.6-fold lower, 29 nM
- CNc1nc(Nc2cn(C3CCC(F)(F)CC3)nc2C)ncc1C#N [Example 392, 2-[1-(4,4-Difluoro-cyclohexyl)-3-methyl-1H-pyrazol-4-ylamino]-4-methylamino-pyrimidine-5-carbonitrile] — 5.9-fold higher, 266 nM

same assay, conditions: Table 10; LRRK2 Ki (micromolar); read-out: LRRK2 Ki (KI)

Point of comparison: CNC(=O)C(C)(C)n1ncc(Nc2ncc(C(F)(F)F)c(NC3CC3)n2)c1C [Example 450, 2-[4-(4-Cyclopropylamino-5-trifluoromethyl-pyrimidin-2-ylamino)-5-methyl-pyrazol-1-yl]-N-methyl-isobutyramide], Ki 7.1 nM. Against it:
- CCNC(=O)C(C)(C)n1ncc(Nc2ncc(C(F)(F)F)c(NC)n2)c1Cl [Example 425, 2-(5-chloro-4-(4-(methylamino)-5-(trifluoromethyl)pyrimidin-2-ylamino)-1H-pyrazol-1-yl)-N-ethyl-2-methyl propanamide] — 5-fold higher, 35.5 nM
- CCNc1nc(Nc2cnn(C(C)(C)C(=O)NC)c2C)ncc1C(F)(F)F [Example 448, 2-[4-(4-Ethylamino-5-trifluoromethyl-pyrimidin-2-ylamino)-5-methyl-pyrazol-1-yl]-N-methyl-isobutyramide] — 2.2-fold higher, 15.3 nM

same assay, conditions: read-out: LRRK2 Ki (KI), Table 7

Point of comparison: CCNc1nc(Nc2ccn(C)n2)ncc1C(F)(F)F [Example 61, N^4-ethyl-N^2-(1-methyl-1H-pyrazol-3-yl)-5-(trifluoromethyl) pyrimidine-2,4-diamine], Ki 4.6 nM. Against it:
- COc1nc(Nc2cnn(-c3ccccc3)c2C)ncc1C(F)(F)F [Example 78, (4-Methoxy-5-trifluoromethyl-pyrimidin-2-yl)-(5-methyl-1-phenyl-1H-pyrazol-4-yl)-amine] — 8.3-fold higher, 38.1 nM
- COc1nc(Nc2cn(C3CCOCC3)nc2C)ncc1Cl [Example 65, 5-chloro-4-methoxy-N-(3-methyl-1-(tetrahydro-2H-pyran-4-yl)-1H-pyrazol-4-yl)pyrimidin-2-amine] — 1.6-fold lower, 2.9 nM

same assay, conditions: read-out: LRRK2 Ki (KI), Table 8

Point of comparison: CNc1nc(Nc2cn(C3C[C@@H]4CC[C@@H](C3)O4)nc2C)ncc1C(F)(F)F (stereo partly drawn) [Example 126, N2-(1-((1S,5S)-8-oxabicyclo[3.2.1]octan-3-yl)-3-methyl-1H-pyrazol-4-yl)-N4-methyl-5-(trifluoromethyl) pyrimidine-2,4-diamine], Ki 113 nM. Against it:
- CCNc1nc(Nc2cnn(S(=O)(=O)C(C)C)c2C)ncc1C(F)(F)F [Example 279, N4-Ethyl-N2-[5-methyl-1-(propane-2-sulfonyl)-1H-pyrazol-4-yl]-5-trifluoromethyl-pyrimidine-2,4-diamine] — 24-fold lower, 4.7 nM
- CNc1nc(Nc2cnn(C3COC3)c2Cl)ncc1C(F)(F)F [Example 168, N2-(5-chloro-1-(oxetan-3-yl)-1H-pyrazol-4-yl)-N4-methyl-5-(trifluoromethyl) pyrimidine-2,4-diamine] — 12-fold lower, 9.5 nM
- CCNc1nc(Nc2cnn(CC(C)(C)O)c2Cl)ncc1C(F)(F)F [Example 234, 1-(5-chloro-4-(4-(ethylamino)-5-(trifluoromethyl)pyrimidin-2-ylamino)-1H-pyrazol-1-yl)-2-methylpropan-2-ol] — 36-fold lower, 3.1 nM
- CCNc1nc(Nc2cn(-c3ccc(S(=O)(=O)C4CC4)cc3)nc2C)ncc1C(F)(F)F [Example 264, N2-[1-(4-Cyclopropane-sulfonyl-phenyl)-3-methyl-1H-pyrazol-4-yl]-N4-ethyl-5-trifluoromethyl-pyrimidine-2,4-diamine] — 35-fold lower, 3.2 nM
- CNc1nc(Nc2cnn(C3CCN(C(=O)C4CC4)CC3)c2C)ncc1C(F)(F)F [Example 135, cyclopropyl(4-(5-methyl-4-(4-(methylamino)-5-(trifluoromethyl)pyrimidin-2-ylamino)-1H-pyrazol-1-yl)piperidin-1-yl)methanone] — 110-fold lower, 1 nM
- CNc1nc(Nc2cnn(C3CCN(C4COC4)CC3F)c2Cl)ncc1C(F)(F)F (stereo not drawn) [Example 305, N2-[5-Chloro-1-(3-fluoro-1-oxetan-3-yl-piperidin-4-yl)-1H-pyrazol-4-yl]-N4-methyl-5-trifluoromethyl-pyrimidine-2,4-diamine] — 51-fold lower, 2.2 nM
- CNc1nc(Nc2cn(Cc3ccccn3)nc2C)ncc1C(F)(F)F [Example 213, N4-methyl-N2-(3-methyl-1-(pyridin-2-ylmethyl)-1H-pyrazol-4-yl)-5-(trifluoromethyl) pyrimidine-2,4-diamine] — 39-fold lower, 2.9 nM
- CCNc1nc(Nc2cn(C3CCC(=O)N(C)C3)nc2C)ncc1C(F)(F)F (stereo not drawn) [Example 152, 5-(4-(4-(ethylamino)-5-(trifluoromethyl)pyrimidin-2-ylamino)-3-methyl-1H-pyrazol-1-yl)-1-methylpiperidin-2-one] — 15-fold lower, 7.3 nM
- CCNc1nc(Nc2cnn(C3CCC(=O)N(C)C3)c2C)ncc1C(F)(F)F (stereo not drawn) [Example 151, 5-(4-(4-(ethylamino)-5-(trifluoromethyl)pyrimidin-2-ylamino)-5-methyl-1H-pyrazol-1-yl)-1-methylpiperidin-2-one] — 100-fold lower, 1.1 nM
- CCNc1nc(Nc2cn(C3CCC(=O)NC3)nc2C)ncc1C(F)(F)F (stereo not drawn) [Example 262, 5-[4-(4-Ethylamino-5-trifluoromethyl-pyrimidin-2-ylamino)-3-methyl-pyrazol-1-yl]-piperidin-2-one] — 87-fold lower, 1.3 nM
- CNc1nc(Nc2cn(-c3ccc(Cl)cc3)nc2C)ncc1Br [Example 260, 5-Bromo-N2-[1-(4-chloro-phenyl)-3-methyl-1H-pyrazol-4-yl]-N4-methyl-pyrimidine-2,4-diamine] — 380-fold lower, 0.3 nM
- CNc1nc(Nc2cn(-c3cncnc3)nc2C)ncc1C(F)(F)F [Example 140, N4-methyl-N2-(3-methyl-1-(pyrimidin-5-yl)-1H-pyrazol-4-yl)-5-(trifluoromethyl) pyrimidine-2,4-diamine] — 19-fold lower, 6.1 nM
- CCNc1nc(Nc2cn(CC(C)(C)O)nc2C2CC2)ncc1C(F)(F)F [Example 236, 1-(3-cyclopropyl-4-(4-(ethylamino)-5-(trifluoromethyl)pyrimidin-2-ylamino)-1H-pyrazol-1-yl)-2-methylpropan-2-ol] — 75-fold lower, 1.5 nM
- CCNc1nc(Nc2cn(C3CCN(CCOC)CC3)nc2C)ncc1C(F)(F)F [Example 282, N4-Ethyl-N2-{1-[1-(2-methoxy-ethyl)-piperidin-4-yl]-3-methyl-1H-pyrazol-4-yl}-5-trifluoromethyl-pyrimidine-2,4-diamine] — 21-fold lower, 5.4 nM
- CNc1nc(Nc2cnn(-c3ccc(S(=O)(=O)C4CC4)cc3)c2C)ncc1C(F)(F)F [Example 167, N2-(1-(4-(cyclopropyl-sulfonyl)phenyl)-5-methyl-1H-pyrazol-4-yl)-N4-methyl-5-(trifluoromethyl) pyrimidine-2,4-diamine] — 6-fold lower, 18.8 nM
- CCNc1nc(Nc2cnn(C)c2C)ncc1C(F)(F)F [Example 261, N2-(1,5-Dimethyl-1H-pyrazol-4-yl)-N4-ethyl-5-trifluoromethyl-pyrimidine-2,4-diamine] — 87-fold lower, 1.3 nM

same assay, conditions: read-out: LRRK2 Ki given in the example

For CNc1nc(Nc2cnn(C)c2C)ncc1Br [Example 89, 5-Bromo-N^2-(1,5-dimethyl-1H-pyrazol-4-yl)-N^4-methylpyrimidine-2,4-diamine], the Ki was 17 nM.
